Results as given in patent US12077555B2, “STAT degraders and uses thereof” (Kymera Therapeutics, Inc., priority 2019, dated 2024).

Assays:
ternary complex = assay: AlphaLISA assay of ternary complex formation (FIG. 2A); assay type: binding
STAT3 [1] = molecular target: T1, STAT3 (Homo sapiens, UniProt P40763); assay: Fluorescence polarization assay, STAT3 binding; conditions: FIG. 1
E3 ligase = assay: Fluorescence polarization assay, E3 ligase binding; conditions: FIG. 1
[2] = test system: STAT3-degrader-E3 ligase ternary complex; assay: AlphaLISA assays, ternary complex formation and STAT3 ubiquitination; assay type: biochemical; conditions: FIG. 2
STAT3 [3] = molecular target: T1, STAT3; assay: STAT3 ubiquitination in A549 lysates (FIG. 2B); assay type: cell-based; set-up: expressed in transfected cells; host or cells: A549
STAT3 [4] = molecular target: T1, STAT3; assay: Quantitation of STAT3 degradation in A549 cells by Western blot; assay type: cell-based; set-up: expressed in transfected cells; host or cells: A549; conditions: read-out: A549 DC50, 24 hours, tested up to 30 μM or 10 μM
Procedure, shortened: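 A549 cells treated 24 h at 37° C with compound at 30, 10, 3, 1, 0.3 μM or DMSO; RIPA lysates analysed by SDS-PAGE/Western blot for total STAT3, β-actin as loading control, LI-COR fluorescence read-out. DC50 derived by sigmoidal fit of dose-dependent degradation.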

[5] = molecular target: T2, mutant STAT3 (STAT D661Y) (Homo sapiens, UniProt P40763, D661Y); assay: degradation of mutant STAT3 in HDLM-2 cell lines, dose response; assay type: cell-based; conditions: dose response curve
T2 construct: endogenous in cells; host or cells: HDLM-2

mutant STAT3 = mutant STAT3 (Homo sapiens, UniProt P40763, D661Y); assay: STAT3 MSD assay, mutant STAT3 cell lines; assay type: cell-based; conditions: read-out: DC50, mutant STAT3; mutant STAT3 heme cell lines, FIG. 9
Procedure: 100 nl of compounds were added into the intermediate plate with Echo (Labcyte 550) from source plate containing a 3-fold serial dilution from top concentration of 1 mM. Cells were seeded into 96-well plates (4×10^4 cells/well/100 ul media), mixed well, and incubated for 24 hours. The media was aspirated from the cultures and 60 μL pre-chilled PIPA lysis buffer (Boston BioProducts BP-115D) with protease/phosphatase inhibitor (Roche 05892791001/Roche 04906837001) was added into the well to lyze the cells for 20 minutes at 4° C. The MSD plate (L15XA) was coated with 2 ug/ml capture antibody (ab119352) in PBS and incubated at 4° C. overnight. The next day, the plate was washed three times with TBST (CST #99975), 150 μL/well. MSD plates were blocked with 150 μL blocking buffer per well and shaken for 1 hr at RT and 600 rpm. The blocking buffer was 3% Blocker A (MSD, R93BA-4) in TBST. The MSD plate was washed three times with 150 μL/well of TBST and 70 μL cell lysate was added into the well and shaken for 1 hour at RT and 600 rpm. […] The MSD plate washed three times with 150 μL/well of TBST and added 150 μL/well of 2×MSD reading buffer diluted from 4× (MSD, R92TC-2) with water. Lastly the MSD instrument was read.

A3/KAW cells = assay: CellTiter-Glo cell viability, A3/KAW; assay type: cell-based; conditions: DLBCL

T1 sequence (P40763 whole entry): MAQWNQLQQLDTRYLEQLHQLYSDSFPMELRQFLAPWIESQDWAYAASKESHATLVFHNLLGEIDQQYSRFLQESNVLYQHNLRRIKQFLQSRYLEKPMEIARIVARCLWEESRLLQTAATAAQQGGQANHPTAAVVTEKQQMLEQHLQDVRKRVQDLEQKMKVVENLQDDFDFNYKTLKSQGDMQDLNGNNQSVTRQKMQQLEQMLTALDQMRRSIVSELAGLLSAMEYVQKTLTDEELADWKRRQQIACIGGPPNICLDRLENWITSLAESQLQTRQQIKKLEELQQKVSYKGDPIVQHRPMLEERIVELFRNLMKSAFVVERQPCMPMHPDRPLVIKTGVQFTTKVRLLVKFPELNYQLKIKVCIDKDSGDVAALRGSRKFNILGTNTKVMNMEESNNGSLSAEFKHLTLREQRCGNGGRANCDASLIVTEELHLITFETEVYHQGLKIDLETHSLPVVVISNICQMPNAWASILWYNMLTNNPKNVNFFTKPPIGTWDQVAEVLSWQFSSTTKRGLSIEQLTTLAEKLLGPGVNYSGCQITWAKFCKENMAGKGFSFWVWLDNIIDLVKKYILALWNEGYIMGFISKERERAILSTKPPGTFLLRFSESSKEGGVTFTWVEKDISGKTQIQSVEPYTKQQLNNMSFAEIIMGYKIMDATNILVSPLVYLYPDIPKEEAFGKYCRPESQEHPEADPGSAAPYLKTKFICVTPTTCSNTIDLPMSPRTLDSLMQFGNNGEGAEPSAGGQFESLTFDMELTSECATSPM
T2 sequence (P40763 whole entry D661Y): as the sequence (P40763 whole entry) above, with D661Y counted along it
Sequence of mutant STAT3 (P40763 2-770 D661Y): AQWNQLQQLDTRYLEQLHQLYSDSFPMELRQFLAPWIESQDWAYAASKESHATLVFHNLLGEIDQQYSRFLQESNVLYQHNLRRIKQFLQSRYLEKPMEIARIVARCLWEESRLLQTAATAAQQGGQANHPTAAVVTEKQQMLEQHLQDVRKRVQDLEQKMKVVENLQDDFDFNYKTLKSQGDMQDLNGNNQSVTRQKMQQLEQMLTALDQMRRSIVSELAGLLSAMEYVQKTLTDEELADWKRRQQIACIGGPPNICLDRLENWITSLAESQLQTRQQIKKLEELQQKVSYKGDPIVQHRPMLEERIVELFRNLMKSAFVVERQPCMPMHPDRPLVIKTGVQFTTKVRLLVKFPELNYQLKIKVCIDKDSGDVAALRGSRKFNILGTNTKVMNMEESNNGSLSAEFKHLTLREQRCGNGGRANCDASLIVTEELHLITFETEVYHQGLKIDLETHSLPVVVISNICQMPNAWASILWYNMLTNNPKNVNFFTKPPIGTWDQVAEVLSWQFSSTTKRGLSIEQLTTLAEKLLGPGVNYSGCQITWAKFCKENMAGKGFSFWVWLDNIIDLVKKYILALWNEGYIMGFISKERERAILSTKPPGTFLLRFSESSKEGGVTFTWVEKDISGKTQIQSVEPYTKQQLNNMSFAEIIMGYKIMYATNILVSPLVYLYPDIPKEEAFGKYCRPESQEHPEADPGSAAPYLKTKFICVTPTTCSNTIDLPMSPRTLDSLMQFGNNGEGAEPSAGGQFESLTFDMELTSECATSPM

**Q.** With `C/C(=C\C(=O)N[C@H]1CCc2cccc3c2N(C1=O)[C@H](C(=O)N[C@@H](CCC(N)=O)[C@@H](C)OCc1ccc(CCCCC(=O)N[C@H](C(=O)N2C[C@H](O)C[C@H]2C(=O)NCc2ccc(-c4scnc4C)cc2)C(C)(C)C)cc1)C3)c1ccc(C(F)(F)P(=O)(O)O)cc1` [Compound I-1, [4-[(1E)-1-[[(2S,11S)-2-[[(3S,4R)-1-carbamoyl-4-[[4-(4-[[(2S)-1-[(2S,4R)-4-hydroxy-2-([[4-(4-methyl-1,3-thiazol-5-yl)phenyl]methyl]carbamoyl)pyrrolidin-1-yl]-3,3-dimethyl-1-oxobutan-2-yl]carbamoyl]butyl)phenyl]methoxy]pentan-3-yl]carbamoyl]-12-oxo-1-azatricyclo[6.4.1.0^[4,13]]trideca-4(13),5,7-trien-11-yl]carbamoyl]prop-1-en-2-yl]phenyl]difluoromethylphosphonic acid] as the molecule, how does the ternary complex formation (ternary complex) read?
**A.** Its ternary complex formation is “efficient ternary complex formation”.

**Q.** And the “binding to STAT3” value (STAT3 [1])?
**A.** The value was “binds”.

**Q.** What about the “binding to E3 ligase” value (E3 ligase) of the same molecule?
**A.** The value was “binds”.

**Q.** And the STAT3 ubiquitination [2]?
**A.** Its STAT3 ubiquitination is “promotes”.

**Q.** And the “formation of the STAT3-degrader-E3 ligase ternary complex” value [2]?
**A.** The value was “promotes the formation of the STAT3-degrader-E3 ligase ternary complex”.

**Q.** What about the STAT3 ubiquitination (STAT3 [3]) of the same molecule?
**A.** Its STAT3 ubiquitination is “STAT3 ubiquitination”.

**Q.** And the DC50 (STAT3 [4])?
**A.** The DC50 was under 30 µM.

**Q.** Which results are given for `NC(=O)CC[C@H](NC(=O)[C@@H]1CC[C@@H]2CCN(C(=O)CCCCCC#Cc3cccc4c3CN(C3CCC(=O)NC3=O)C4=O)C[C@H](NC(=O)c3cc4cc(C(=O)P(=O)(O)O)ccc4[nH]3)C(=O)N21)C(=O)NC(c1ccccc1)c1ccccc1` (stereo partly drawn) [Compound I-111, diammonium 2-[[(5S,8S,10aR)-8-[[(1S)-3-carbamoyl-1-(diphenylmethylcarbamoyl)propyl]carbamoyl]-3-[8-[2-(2,6-dioxopiperidin-3-yl)-1-oxo-3H-isoindol-4-yl]oct-7-ynoyl]-6-oxo-octahydropyrrolo[1,2-a][1,5]diazocin-5-yl]carbamoyl]-1H-indole-5-carbonylphosphonate]?
**A.** degradation of mutant STAT3 (STAT D661Y) [5]: degrading mutant STAT3; DC50 (mutant STAT3): 0.068 µM; IC50 (A3/KAW cells; 96 h, Day 4, read-out: CTG, IC50 μM, Day 4): 1.9 µM; CTG (% Max inh), Day 4 (A3/KAW cells): (50-55) %; DC50 (STAT3 [4]): < 30 µM
